Source: patent US12714106B2 (Bayer Aktiengesellschaft, priority 2020, dated 2026)

Key:
Type in all cases: in vivo
[1] = tested on: grass and broadleaf weeds; assay: Comparative testing of crystalline (I), (Ia), (Ib), summary of tables 3 to 6; details: see tables 3 to 6; for herbicidal activity compared with the other crystalline forms: (I) vs (Ia), (Ia) vs (Ib)
Protocol: (§1) Seeds of grass and broadleaf weeds were sown in pots (diameter: 7 cm) filled with a sandy loam soil. Following germination the plants were grown under optimal conditions up to a growth stage of BBCH 11 to 14 depending on species.
(§2) The applications were performed by post emergence treatments on the planted pots using a spray volume of 300 L water per hectare. The herbicides were applied alone and in combination as described.
(§3) The trial was conducted in the greenhouse ensuring optimal growing conditions.
(§4) The herbicidal effects were assessed 21 days following application by visual ratings comparing treated and untreated plants (0%=no effect to 100%=complete die-off).
(§5) The compounds of the formula (Ia), (Ib) and (I) were formulated as WP (wettable powder) formulation.
(§6) The synergistic herbicidal activity was calculated using Colby's formula (cf. S. R. Colby; Weeds 15 (1967), 20-22): […]

[2] = tested on: MATIN (Matricaria inodora); assay: Post-emergence greenhouse herbicide test, visual rating; details: for MATIN Expected: Colby formula; for MATIN Synergism: observed minus expected; for MATIN Observed: post-emergence, 21 days after application
Protocol: as §1, §2, §3, §4, §5
(§7) • BBCH=the BBCH code provides information about the morphological development stage of a plant. Officially, the abbreviation denotes the Biologische Bundesanstalt, Bundessortenamt and Chemische Industrie [Federal Biological Institute for Agriculture and Forestry, Federal Office for Crop Plant Varieties and Chemical Industry]. The range of BBCH 00-10 denotes the germination stages of the seeds until surface penetration. The range of BBCH 11-25 denotes the leaf development stages until stocking (corresponding to the number of tillers or side-shoots). In the Trials, the Following Biotypes of Broad-Leaved Weeds and Weed Grasses were Used: • ALOMY—sensitive (Alopecurus myosuroides) sensitive to customary herbicidally active compounds. • ALOMY_R (resistant) (Alopecurus myosuroides) resistant to herbicidally active compounds of the HRAC groups A and B; population mixture of field origin having increased metabolic resistance (IMR) and some target site resistance (TSR). • LOLRI—sensitive (Lolium rigidum) sensitive to customary herbicidally active compounds. • LOLRI_R (resistant) (Lolium rigidum) resistant to herbicidally active compounds of the HRAC groups A and B; population mixture of field origin having increased metabolic resistance (IMR) and some target site resistance (TSR). • AMAPA_R (resistant) (Amaranthus palmeri) resistant to herbicidally active compounds of the HRAC groups A and B; population mixture of field origin having increased metabolic resistance (IMR) and some target site resistance (TSR). • CHRVI (Chloris virgate) feather finger grass • KCHSC (Kochia scoparia) Mexican burning bush • MATIN (Matricaria inodora) false chamomile • POLCO (Polygonum convolvulus) black knotweed • ABUTH (Abutilon theophrasti) china jute • AMAPA (Amaranthus palmeri) palmer amaranth • BIDPI (Bidens pilosa) common blackjack • CHEAL (Chenopodium album) common lambsquarters • EPHHL (Euphorbia heterophylla) wild spurge • XANST (Xanthium strumarium) large cocklebur • EMEAU (Emex australis)—Cathead • GALAP (Gallium aparine)—Cleaver
as §6

[3] = tested on: EPHHL (Euphorbia heterophylla); assay: as above; details: for EPHHL Expected: Colby formula; for EPHHL synerg.: observed minus expected; for EPHHL Observed: post-emergence, 21 days after application
Protocol: as §1, §2, §3, §4, §5, §7, §6

[4] = tested on: ABUTH (Abutilon theophrasti); assay: as above; details: for ABUTH Expected: Colby formula; for ABUTH synerg.: observed minus expected; for ABUTH Observed: post-emergence, 21 days after application
Protocol: as §1, §2, §3, §4, §5, §7, §6

[5] = tested on: GALAP (Gallium aparine); assay: as above; details: 50 g/ha; for GALAP Observed: post-emergence, 21 days after application
Protocol: as §1, §2, §3, §4, §5, §7, §6

[6] = tested on: POLCO (Polygonum convolvulus); assay: as above; details: 12.5 g/ha; for POLCO Observed: post-emergence, 21 days after application
Protocol: as §1, §2, §3, §4, §5, §7, §6

[7] = tested on: CHEAL (Chenopodium album); assay: as above; details: for CHEAL Observed: post-emergence, 21 days after application
Protocol: as §1, §2, §3, §4, §5, §7, §6

[8] = tested on: BID PI (Bidens pilosa); assay: as above; details: for BID PI Observed: post-emergence, 21 days after application
Protocol: as §1, §2, §3, §4, §5, §7, §6

[9] = tested on: XANST (Xanthium strumarium); assay: as above; details: for XANST Expected: Colby formula; for XANST synerg.: observed minus expected; for XANST Observed: post-emergence, 21 days after application
Protocol: as §1, §2, §3, §4, §5, §7, §6

[10] = tested on: LOLRI - sensitive (Lolium rigidum); assay: as above; details: for LOLRI Expected: Colby formula; for LOLRI Synergism: observed minus expected; for LOLRI Observed: post-emergence, 21 days after application
Protocol: as §1, §2, §3, §4, §5, §7, §6

[11] = tested on: KCHSC (Kochia scoparia); assay: as above; details: 12.5 g/ha; for KCHSC Observed: post-emergence, 21 days after application
Protocol: as §1, §2, §3, §4, §5, §7, §6

[12] = tested on: EMEAU (Emex australis); assay: as above; details: for EMEAU Observed: post-emergence, 21 days after application
Protocol: as §1, §2, §3, §4, §5, §7, §6

[13] = tested on: AMAPA-R (resistant) (Amaranthus palmeri); assay: as above; details: for AMAPA-R Observed: post-emergence, 21 days after application
Protocol: as §1, §2, §3, §4, §5, §7, §6

[14] = tested on: CHRVI (Chloris virgate); assay: as above; details: 12.5 g/ha; for CHRVI Observed: post-emergence, 21 days after application
Protocol: as §1, §2, §3, §4, §5, §7, §6

[15] = tested on: LOLRI_R (resistant) (Lolium rigidum); assay: as above; details: for LOLRI_R Expected: Colby formula; for LOLRI_R Synergism: observed minus expected; for LOLRI_R Observed: post-emergence, 21 days after application
Protocol: as §1, §2, §3, §4, §5, §7, §6

[16] = 25 g/ha (Ia) + 25 g/ha (Ib), Colby formula
[17] = 25 g/ha (Ia) + 25 g/ha (Ib), observed minus expected

C=C[C@]1(C(=O)N[C@H]2CO[C@@H](C(=O)OC)C2)CC(c2cc(F)cc(F)c2)=NO1 (relative stereo) [(I), methyl(2R*,4R*)-4-[[(5S)-3-(3,5-difluorophenyl)-5-vinyl-4H-isoxazole-5-carbonyl]amino]tetrahydrofuran-2-carboxylate]
herbicidal activity compared with the other crystalline forms [1]: superior in herbicidal activity | synergistic effect of the physical mixture of (Ia) and (Ib) [1]: synergistic effect | MATIN Expected ([2]; 12.5 g/ha): 0% | MATIN Synergism ([2]; 12.5 g/ha): 15% | MATIN Observed ([2]; 12.5 g/ha): 15% | MATIN Expected ([2]; 25 g/ha): 0% | MATIN Synergism ([2]; 25 g/ha): 15% | MATIN Observed ([2]; 25 g/ha): 15% | MATIN Expected ([2]; 50 g/ha): 0% | MATIN Synergism ([2]; 50 g/ha): 20% | MATIN Observed ([2]; 50 g/ha): 20% | EPHHL Expected ([3]; 25 g/ha (Ia) + 25 g/ha (Ib)): 55% | EPHHL synerg. ([3]; 25 g/ha (Ia) + 25 g/ha (Ib)): 11% | EPHHL Observed ([3]; 25 g/ha (Ia) + 25 g/ha (Ib)): 65% | EPHHL Expected ([3]; 50 g/ha (Ia) + 50 g/ha (Ib)): 58% | EPHHL synerg. ([3]; 50 g/ha (Ia) + 50 g/ha (Ib)): 12% | EPHHL Observed ([3]; 50 g/ha (Ia) + 50 g/ha (Ib)): 70% | ABUTH Expected ([4]; 25 g/ha (Ia) + 25 g/ha (Ib)): 51% | ABUTH synerg. ([4]; 25 g/ha (Ia) + 25 g/ha (Ib)): 25% | ABUTH Observed ([4]; 25 g/ha (Ia) + 25 g/ha (Ib)): 75% | ABUTH Expected ([4]; 50 g/ha (Ia) + 50 g/ha (Ib)): 68% | ABUTH synerg. ([4]; 50 g/ha (Ia) + 50 g/ha (Ib)): 7% | ABUTH Observed ([4]; 50 g/ha (Ia) + 50 g/ha (Ib)): 75% | GALAP Expected ([5]; Colby formula): 84% | GALAP Synergism ([5]; observed minus expected): 6% | GALAP Observed [5]: 90% | POLCO Expected ([6]; Colby formula): 91% | POLCO Synergism ([6]; observed minus expected): 4% | POLCO Observed [6]: 95% | CHEAL Expected [7, 16]: 76% | CHEAL synerg. [7, 17]: 19% | CHEAL Observed ([7]; 25 g/ha (Ia) + 25 g/ha (Ib)): 95% | BID PI Expected [8, 16]: 37% | BID PI synerg. [8, 17]: 28% | BID PI Observed ([8]; 25 g/ha (Ia) + 25 g/ha (Ib)): 65% | XANST Expected ([9]; 25 g/ha (Ia) + 25 g/ha (Ib)): 0% | XANST synerg. ([9]; 25 g/ha (Ia) + 25 g/ha (Ib)): 35% | XANST Observed ([9]; 25 g/ha (Ia) + 25 g/ha (Ib)): 35% | XANST Expected ([9]; 50 g/ha (Ia) + 50 g/ha (Ib)): 28% | XANST synerg. ([9]; 50 g/ha (Ia) + 50 g/ha (Ib)): 7% | XANST Observed ([9]; 50 g/ha (Ia) + 50 g/ha (Ib)): 35% | XANST Expected ([9]; 100 g/ha (Ia) + 100 g/ha (Ib)): 36% | XANST synerg. ([9]; 100 g/ha (Ia) + 100 g/ha (Ib)): 29% | XANST Observed ([9]; 100 g/ha (Ia) + 100 g/ha (Ib)): 65% | LOLRI Expected ([10]; 6.25 g/ha): 20% | LOLRI Synergism ([10]; 6.25 g/ha): 55% | LOLRI Observed ([10]; 6.25 g/ha): 75% | LOLRI Expected ([10]; 12.5 g/ha): 90% | LOLRI Synergism ([10]; 12.5 g/ha): 5% | LOLRI Observed ([10]; 12.5 g/ha): 95% | KCHSC Expected ([11]; Colby formula): 82% | KCHSC Synergism ([11]; observed minus expected): 13% | KCHSC Observed [11]: 95% | EMEAU Expected ([12]; 12.5 g/ha (row as printed), Colby formula): 89% | EMEAU Synergism ([12]; 12.5 g/ha (row as printed), observed minus expected): 8% | EMEAU Observed ([12]; 12.5 g/ha (row as printed)): 97% | AMAPA-R Expected [13, 16]: 51% | AMAPA-R synerg. [13, 17]: 14% | AMAPA-R Observed ([13]; 25 g/ha (Ia) + 25 g/ha (Ib)): 65% | CHRVI Expected ([14]; Colby formula): 48% | CHRVI Synergism ([14]; observed minus expected): 47% | CHRVI Observed [14]: 95% | LOLRI_R Expected ([15]; 6.25 g/ha): 15% | LOLRI_R Synergism ([15]; 6.25 g/ha): 15% | LOLRI_R Observed ([15]; 6.25 g/ha): 30% | LOLRI_R Expected ([15]; 12.5 g/ha): 20% | LOLRI_R Synergism ([15]; 12.5 g/ha): 20% | LOLRI_R Observed ([15]; 12.5 g/ha): 40% | LOLRI_R Expected ([15]; 25 g/ha): 30% | LOLRI_R Synergism ([15]; 25 g/ha): 10% | LOLRI_R Observed ([15]; 25 g/ha): 40%

C=C[C@]1(C(=O)N[C@H]2CO[C@@H](C(=O)OC)C2)CC(c2cc(F)cc(F)c2)=NO1 [(Ia), methyl(2R,4R)-4-[[(5S)-3-(3,5-difluorophenyl)-5-vinyl-4H-isoxazole-5-carbonyl]amino]-tetrahydrofuran-2-carboxylate]
herbicidal activity compared with the other crystalline forms [1]: superior in activity | MATIN Observed ([2]; 12.5 g/ha): 0% | MATIN Observed ([2]; 25 g/ha): 0% | MATIN Observed ([2]; 50 g/ha): 0% | EPHHL Observed ([3]; 25 g/ha single isomer): 30% | EPHHL Observed ([3]; 50 g/ha single isomer): 35% | ABUTH Observed ([4]; 25 g/ha single isomer): 45% | ABUTH Observed ([4]; 50 g/ha single isomer): 60% | GALAP Observed [5]: 75% | POLCO Observed [6]: 85% | CHEAL Observed ([7]; 25 g/ha single isomer): 70% | BID PI Observed ([8]; 25 g/ha single isomer): 30% | XANST Observed ([9]; 25 g/ha single isomer): 0% | XANST Observed ([9]; 50 g/ha single isomer): 20% | XANST Observed ([9]; 100 g/ha single isomer): 20% | LOLRI Observed ([10]; 6.25 g/ha): 20% | LOLRI Observed ([10]; 12.5 g/ha): 90% | KCHSC Observed [11]: 70% | EMEAU Observed ([12]; 50 g/ha): 80% | AMAPA-R Observed ([13]; 25 g/ha single isomer): 35% | CHRVI Observed [14]: 35% | LOLRI_R Observed ([15]; 6.25 g/ha): 15% | LOLRI_R Observed ([15]; 12.5 g/ha): 20% | LOLRI_R Observed ([15]; 25 g/ha): 30%
